“And” between values parts separate entries of the source, which are not always exact repeats. Identical values can stand only once.
How the values were obtained:
mice [1] = conditions: mice, 5 mg/kg IP injection; cited from earlier work
[2] = cited from earlier work
[3] = 2-h PK study in rats that underwent MCAO; assay type: in vivo; conditions: rats after 90-min MCAO, 0.225 mg/kg IV + 0.225 mg/kg SC, 2 h after reperfusion
Experimental: Samples were prepared as described in [10] with modifications to accommodate the small tissue sizes and enhance the detection sensitivity. Quantitative liquid chromatography electrospray-ionization tandem mass spectrometry (LCMS/MS) analysis was performed on a Shimadzu 20A series HPLC (LC)-Applied Biosystems/MDS Sciex API 3200 QTrap or API 4000 QTrap tandem-mass spectrometer (MS/MS) as described earlier. The use of heptafluorobutyric acid (HFBA) mobile phase modifier as an ion-pairing agent increases the overall lipophilicity and volatility, which increases the retention and ionization efficiency of the analytes, affording an abundance of HFBA-associated ions. […] (OH)FeTnBuOE-2-PyP^4+ was prepared as described for other Fe(III) N-alkylpyridylporphyrins and analogous (H2O)MnTnBuOE-2-PyP^5+ [13, 16]. The solvents employed were: A = 95:5 H2O:MeCN (0.1% HFBA); B = MeCN (0.1% HFBA). […] With the chosen solvent system, all four atropoisomers collapsed into a single peak, enhancing the sensitivity of the method to as low as 0.5 nM (nanomoles per L of tissue homogenate). Analyses were performed using a Phenomenex Luna C18 guard cartridge (ID × L, 2 × 4 mm) only. […] Their structures are also shown. […] The response was calculated as the ratio between the standard peak area and the internal standard peak area. Another possible cause for the failure of therapeutics in stroke may be their slow accumulation in the brain, i.e., not being there in time to prevent the burst of reactive species and rapid activation of transcription factors, which perpetuate oxidative stress. We therefore conducted short-term 2-h PK to evaluate how fast post-MCAO our drug gets into the brain. Three rats per compound were subjected to 90 min of transient right MCAO as reported. The first dose of 0.225 mg/kg was given IV via the […] at 5 min after ischemia/reperfusion. The second dose of 0.225 mg/kg was given SC at 30 min after reperfusion. Blood was collected at 2 h and plasma harvested. Rats were perfused with heparin saline (2000 IU/500 mL) until no reddish fluid came out from the right atrium. Then, the liver, and left and right brain were collected and placed on dry ice and stored at -20 °C. Plasma, liver, and brain were analyzed by LCMS/MS.

[4] = 7-day PK study in healthy rats; assay type: in vivo; conditions: healthy rats
Experimental: Samples were prepared as described in [10] with modifications to accommodate the small tissue sizes and enhance the detection sensitivity. Quantitative liquid chromatography electrospray-ionization tandem mass spectrometry (LCMS/MS) analysis was performed on a Shimadzu 20A series HPLC (LC)-Applied Biosystems/MDS Sciex API 3200 QTrap or API 4000 QTrap tandem-mass spectrometer (MS/MS) as described earlier. The use of heptafluorobutyric acid (HFBA) mobile phase modifier as an ion-pairing agent increases the overall lipophilicity and volatility, which increases the retention and ionization efficiency of the analytes, affording an abundance of HFBA-associated ions. […] (OH)FeTnBuOE-2-PyP^4+ was prepared as described for other Fe(III) N-alkylpyridylporphyrins and analogous (H2O)MnTnBuOE-2-PyP^5+ [13, 16]. The solvents employed were: A = 95:5 H2O:MeCN (0.1% HFBA); B = MeCN (0.1% HFBA). […] With the chosen solvent system, all four atropoisomers collapsed into a single peak, enhancing the sensitivity of the method to as low as 0.5 nM (nanomoles per L of tissue homogenate). Analyses were performed using a Phenomenex Luna C18 guard cartridge (ID × L, 2 × 4 mm) only. […] Their structures are also shown. […] The response was calculated as the ratio between the standard peak area and the internal standard peak area. We conducted a 7-day rat PK study under conditions identical to those that afforded the therapeutic efficacy of MnTnHex-2-PyP^5+ in an earlier study. […] Afterwards, blood/plasma samples were collected before injection and at 2 h after 24 h-injections (every second injection). Liver and brains were taken for analysis 12 h after the last injection. Three rats were used per compound. After the single (first) SC injection, we obtained a prototypical PK profile observed in the case of all Mn(III) ortho […] In contrast, although similarly absorbed after SC injection, the […] Our understanding is that the “elimination” process is actually a fast distribution/retention into/by the liver, kidney, and spleen, a multi-compartmental process responsible for early decay of the plasma concentration, observed for all Mn porphyrin analogs investigated.

[5] = in vivo; cited from earlier work
rat MCAO stroke model = experiment: 7-day rat MCAO efficacy study; assay type: in vivo, rats; conditions: 0.225 mg/kg twice per day 7 days
Experimental: The 7-day rat MCAO study was done as described in [9]. The 250–275 g Wistar rats were used as another species is a requirement for preclinical stroke research. The duration of the right MCAO was 90 min. […] The first dose was given IV slowly via the […] at 5 min after ischemia/reperfusion. The following doses were given SC. At day 7 post-injury, a person blinded to the treatment groups assessed the neurological deficit and then brains were harvested for infarct volume measurements.

[6] = mouse, in vivo; cited from earlier work
mice [7] = conditions: mouse, in vivo, ip, 10 mg/kg; cited from earlier work
[8] = tested on: rat middle cerebral artery occlusion (MCAO) stroke model; conditions: cited from earlier work
[9] = SC 0.225 mg/kg BID 7 days, 12 h after last injection
[10] = SC 0.225 mg/kg BID 7 days, WinNonlin simulation

For `CCCCCC[n+]1ccccc1-c1c2nc(c(-c3cccc[n+]3CCCCCC)c3ccc([n-]3)c(-c3cccc[n+]3CCCCCC)c3nc(c(-c4cccc[n+]4CCCCCC)c4ccc1[n-]4)C=C3)C=C2.[Mn+3]` [MnHex, Mn(III) meso-tetrakis(N-n-hexylpyridinium-2-yl)porphyrin], the “toxicity / death of mice” value (mice [1]) is listed as “mice died”, the “log kcat(O2^•−), log of rate constant for catalysis of O2^•− dismutation” value [2] is listed as 7.48 and the “level in injured (right) brain hemisphere” value [3] is listed as ~ 35 nM. The “brain level at end of 7-day treatment” value ([4]; SC 0.225 mg/kg BID 7 days) was 25 nM, the “brain concentration at end of 7-day treatment” value [4, 9] was 25 nM and the “end-of-treatment 7-day liver tissue level” value [4, 9] was 21 µM. The “average plasma concentration (Caver)” value [4, 10] was 76 nM, the “plasma AUC” value [4, 10] was 11.5 µM·h and the Cmax ([4]; SC 0.225 mg/kg BID 7 days, WinNonlin simulation, read-out: Cmax at steady state, plasma) was 220 nM. The “elimination from plasma after single (first) SC injection” value ([4]; SC 0.225 mg/kg, first 12 h) was “eliminated from plasma within 12 h”, the plasma half-life ([4]; SC 0.225 mg/kg, estimated from simulation, 0.225 mg/kg) was 1.4 h and ~ 1.4 h and the “blood–brain barrier crossing” value [5] was “crosses the BBB”. For the same compound, the “p, cortex infarct volume vs vehicle” value (rat MCAO stroke model) was 0.046, the “p, neuroscore vs vehicle” value (rat MCAO stroke model) was 0.016 and the “p, subcortex infarct volume vs vehicle” value (rat MCAO stroke model) was 0.049. For the same compound, the “p, total infarct volume vs vehicle” value (rat MCAO stroke model) was 0.029, the “neurological deficit (neuroscore and infarct volume)” value (rat MCAO stroke model; first dose IV, then SC) was “significantly improved” and the “accumulation in mitochondria relative to cytosol” value [6] was 3.6 fold. For the same compound, the blood pressure drop (mice [7]) was “does cause a blood pressure drop”, the “infarct size in earlier 7-day MCAO study” value [8] was “significantly reduced the infarct size” and the “neurologic outcome, infarct size and inflammation” value ([8]; rat MCAO stroke model and subarachnoid hemorrhage) was “improved the neurologic outcome and decreased infarct size and inflammation”. For the same compound, the “brain level in earlier 7-day MCAO study” value ([8]; rat, in vivo) was ~ 30 nM.

Source: PMC7346179, “Fe Porphyrin-Based SOD Mimic and Redox-Active Compound, (OH)FeTnHex-2-PyP^4+, in a Rodent Ischemic Stroke (MCAO) Model: Efficacy and Pharmacokinetics as Compared to Its Mn Analogue, (H2O)MnTnHex-2-PyP^5+” (Antioxidants, 2020)
